Data on 7 compounds can be found in patent US20260069541A1, “COMPOSITIONS AND METHODS FOR THE DELIVERY OF ACTIVE AGENTS INCLUDING NUCLEIC ACIDS” (Ohio State Innovation Foundation, priority 2022, published 2026).

In one data set the test system is miR-21. The data set can be described thus: In vitro gene regulation, RT-qPCR of miR-21 downstream genes. Type of data set: cell-based. The following applies: KB and A549 cells; free solution, QTsome Original or QTPlus. The method, then:
In Vitro Gene Regulation. KB, A549, THP-1, MC38, and RAW264.7 cells were seeded at 3×10^5 cells/well in 6-well plates 24 hours prior to treatments. Cells were treated with scramble oligonucleotide or AM21 in free solution, lipofectamine, QTsome Original, and QTPlus. Total RNA was extracted using TRI reagent (Zymo Research) per manufacturer protocol. cDNA was prepared by high-capacity cDNA reverse transcription kit (Invitrogen, Waltham, MA, USA), and real-time qPCR (RT-qPCR) was done using SsoAdvanced™ Universal SYBR® Green Supermix (Bio-Rad Laboratories, Hercules, CA) on a QuantStudio 7 Flex Real-time PCR System. All the RT-qPCR primers were purchased from Sigma-Aldrich. Beta-actin (Actb) was selected as the housekeeping gene control. The relative amount of RNA level was calculated and compared according to the 2-ΔΔCt method.

Data set [1] concerns A549 cells. The data set can be described thus: Colony formation assay. In kind it is cell-based. Particulars: up to 1 week. The method, then: Colony Formation Assay. A549 cells were seeded at 100 cells/well in 24-well plates 24 hours prior to treatments. Cells were treated with 16-mer and 20-mer AM21 in free solution and QTPlus at concentrations of 1 uM and 10 uM. Cells were allowed to form colony for up to 1-week followed with fixation by methanol and colony detection by crystal violet.

The subject of data set [2] is FLuc mRNA expression in HEK293, A549, and KB. Nature of the data set: In vitro bioluminescent assay, FLuc mRNA delivery (Example 1). In kind it is cell-based. The following applies: comparison of ionizable lipids (FIG. 1D) and helper lipids (FIG. 1E). As for the experimental part:
In Vitro Bioluminescent Assay. HEK293, A549, and KB were seeded at 3000 cells/well in 96-well plates 24 hours prior to treatments. Cells were treated with 0.1 ug of FLuc mRNA in QTsome Original or QTPlus. Cells were allowed to uptake QTsome Original or QTPlus encapsulating mRNA overnight. The mRNA expression was determined by Bright-Glo™ Luciferase Assay System (Promega, Madison, WI).

A further data set has as its system FFLuc mRNA expression. Nature of the data set: In vivo mRNA expression after IM injection (IVIS bioluminescence). Particulars: 1.5 μg per leg, two rounds combined, helper lipid in QTsome+. Also on record: species or system ICR CD-1 Swiss mice. An excerpt:
ICR CD-1 Swiss mice were purchased from Charles River Laboratory Animals were housed in a temperature-controlled room under a 12 hr light/12 hr dark cycle and fed normal chow diet. All animal studies were reviewed and approved by the Ohio State University Institutional Laboratory Animal Care and Use Committee. Both male and female mice were used for experiments. In vivo mRNA expression was quantified by measuring firefly luciferase bioluminescence. Mice treated with IM injection of FFLuc mRNA lipid QTsome+ nanoparticles at 1.5 μg per leg were injected with luciferin intraperitonially 5 minutes prior to bioluminescence measurements. Bioluminescence images were taken by a in vivo imaging system (IVIS) under optimal exposure settings.

A further data set concerns HEK293T cells. The data set can be described thus: Bright-Glo luciferase assay, FFLuc mRNA delivery by QTsome+ (Example 2). In kind it is cell-based. The following applies: 10,000 HEK293T cells, 100 ng FFLuc mRNA, overnight. The method, then:
To examine the delivery efficiency of QTsome+ lipid nanoparticles, FFLuc mRNA was selected as the reporter gene of interest to be encapsulated into different QTsome+ formulations. Bioluminescence intensity was measured by Bright-Glo luciferase kit used as the quantification of expressed firefly luciferase after mRNA transfection. We treated 10,000 HEK293T cells overnight with 100 ng FFLuc mRNA utilizing different formulations with lipofectamine 3000 as the positive control. […] Therefore, the follow-on samples were formulated at room temperature instead of 65° C. or 37° C.

Data set [3] can be described thus: TNS fluorescence assay, apparent pKa. Particulars: helper lipid in QTsome+, same % of DOTAP. Type of data set: physicochemical. The method, then: To evaluate the apparent pKa of the lipid QTsome+ nanoparticles including different combinations of lipids, 2-(p-toluidino) naphthalene-6-sulfonic acid (TNS) fluorescence assay was designed. TNS binds to positively charged lipids through electrostatic interactions and emits strong fluorescence upon excitation. A series of universal buffers (a combination of 10 mM NaCitrate, 10 mM NaPhasphate, 10 mM NaBorate, and 150 mM NaCl) with pH ranging from 3 to 12 was prepared. QTsome+ were diluted in these buffers at the final ionizable lipid (including SM-102, A066, DODMA and DOTAP) concentration of 75 μM. TNS was then added to the final concentration at 6.0 μM. pH was measured after thorough mixing of TNS and QTsome+ using a pH meter. TNS Fluorescence was obtained by transferring 200 μL of samples into a black-opaque plate in triplicate, and reading using a SpectraMax M5 plate reader with the excitation (λex) at 325 nm and the emission (Nem) at 435 nm. It was assumed that in the presence of amino lipids, TNS fluorescence reaches a maximum when 100% of the amino lipids are ionized, while TNS has little fluorescence when the amino lipids are in the un-ionized state. […]
Where FL is TNS fluorescence value, pKa is apparent pKa of the amino lipids, b is the measure of the cooperativeness of the protonation process of […].

Data set [4] relates to A549 cells. Nature of the data set: MTS assay, cell viability and synergy with erlotinib (CompuSyn). Particulars: fixed-ratio combination of QTPlus-AM21 and erlotinib. Type of data set: cell-based. As for the experimental part: MTS Assay. A549 cells were seeded at 3000 cells/well in 96-well plates 25 hours before treatments. […] After 72-hour treatment, cell viability was examined by CellTiter 96® AQueous One Solution (Promega, Madison, WI) per manufacturer protocol.

Data set [5] concerns A549 xenograft mouse model. Nature of the data set: In vivo antitumor efficacy of QTPlus-AM21 and erlotinib, A549 xenograft. On the set-up: species or system nude mice. The following applies: A549 xenograft mice, individually or in combination. The method, then:
Treatments were initiated once tumors reached 50-100 mm^3. […] All mice were dosed every 3 days for 5 doses. Tumor growth and body weight were monitored, and the tumor volumes were calculated according to the formula: All animal studies were reviewed and approved by The Ohio State University Institutional Laboratory Animal Care and Use Committee (IACUC). All mice were euthanized one day after the last dose to peak the immune activation and protein expression in TME.

The test system of data set [6] is MC38 murine colorectal syngeneic model. The data set can be described thus: In vivo antitumor efficacy, MC38 syngeneic model. Also on record: species or system C57BL/6 mice. The following applies: MC38 syngeneic mice, individually or in combination. As for the experimental part:
To evaluate the combination therapy of QTPlus-AM21 and anti-PDL I therapy, MC38 murine colorectal syngeneic model was generated by subcutaneously inoculating C57BL/6 mice (obtained from Charles River Laboratories) with 1×10^6 cells per mouse on the right flack. Treatments were initiated once tumors reached 50-100 mm^3. Mice (n=5) were intraperitoneally treated with saline, 3 mg/kg QTPlus-encapsulating scramble oligonucleotide, 3 mg/kg QTPlus-AM21, 10 mg/kg atezolizumab, and QTPlus-AM21/atezolizumab combination (3 mg/kg QTPlus-AM21 and 10 mg/kg atezolizumab).
All mice were dosed every 3 days for 5 doses. Tumor growth and body weight were monitored, and the tumor volumes were calculated according to the formula: […]
All animal studies were reviewed and approved by The Ohio State University Institutional Laboratory Animal Care and Use Committee (IACUC). All mice were euthanized one day after the last dose to peak the immune activation and protein expression in TME. Terminal Tumor growth inhibition (% TGI) was determined by the formula: […]
Flow Cytometry. […] Stained cells were analyzed using an LSR II flow cytometer in Flow Cytometry Shared Resources (FCSR) at The Ohio State University Comprehensive Cancer Center.

In the case of “5′-A*+T*+C*A*G*+T*+C*+T*G*A*+T*A*A*G*+C*+T-3′ (ATCAGTCTGATAAGCT; chemistry not given here) [AM21]”, the “miR-21 downstream gene regulation” value with miR-21 was “Akt1 downregulation, Ddah1 upregulation, and Pdl1 upregulation”. The “Inhibition of colony formation / A549 cell growth” value with A549 cells [1] is given as “superior in inhibiting A549 cell growth in vitro”.
Consider `CCCCC/C=C\C/C=C\CCCCCCCCOCC(CN1CCCC1)OCCCCCCCC/C=C\C/C=C\CCCCC` (centres unmarked) [A-066, 1-(2,3-bis(((9Z,12Z)-octadeca-9,12-dien-1-yl)oxy)propyl)pyrrolidine], for which the “mRNA delivery efficiency of QTPlus with different components” value in data set [2] is given as “the most suitable for mRNA delivery in QTsome platform”.
On to `CCCCCCCC/C=C\CCCCCCCC(=O)OC[C@H](COP(=O)(O)OCCN)OC(=O)CCCCCCC/C=C\CCCCCCCC` [DOPE, 1,2-dioleoyl-sn-glycero-3-phosphoethanolamine], for which the “In vivo delivery efficiency (FLuc expression)” value in the data set on FFLuc mRNA expression was “rather outperformed PC-based helper lipids”. Further, the “Bioluminescence intensity (mRNA delivery efficiency)” value with HEK293T cells is “outperformed DOPC and DSPC”. In addition, in [2], the “mRNA delivery efficiency of QTPlus with different components” value is “the most suitable as helper lipids”.
With `CCCCCCCCCCCCCCCCCC(=O)OC[C@H](COP(=O)([O-])OCC[N+](C)(C)C)OC(=O)CCCCCCCCCCCCCCCCC` [DSPC, distearoylphosphatidylcholine], the “Apparent pKa” value in data set [3] is listed as “lowest pKa among all”.
With `CCCCC/C=C\C/C=C\CCCCCCCCC(CCCCCCCC/C=C\C/C=C\CCCCC)OC(=O)CCCN(C)C` [MC3, dilinoleylmethyl-4-dimethylaminobutyrate, reference compound], the “Bioluminescence intensity (mRNA delivery efficiency)” value in the data set on HEK293T cells was “slightly increased the delivery efficiency”.
For `C#Cc1cccc(Nc2ncnc3cc(OCCOC)c(OCCOC)cc23)c1` [erlotinib, Erlotinib], the “Dose reduction index (DRI)” value with A549 cells [4] stood at 2.26. Also, the Body weight entry in data set [5] was “No significant differences in body weight”.
On to “atezolizumab: an anti-PDL1 therapy, monoclonal antibody”, for which the Body weight result in data set [6] is listed as “No significant differences in body weight”.
